Measured values as given in patent US10987327B2, “Method for preventing or treating autism spectrum disorders by benzoic acid salt” (EXCELSIOR PHARMATECH LABS, priority 2017, dated 2021).
Where “and” joins values, the source holds several entries; their conditions need not be identical. Identical values can stand only once. Entries after “also recorded” stand apart in the source; their conditions may differ.

Assays:
children with ASD [1] = assay: Parenting Stress Index-Chinese version (PSI), 12-week open label trial; type: in vivo, human; conditions: sodium benzoate 250 to 500 mg/day, 12 weeks; * = above 85 percentile; c2-c7 = child A-F; Pre-Tx A-F: 70, 97.5, 99, 99, 69, 50
Description: (§1) Six children with ASD were treated with 250 to 500 mg/day of sodium benzoate for 12 weeks. At the baseline and the final (12 weeks) visit, the assessments of receptive and expressive vocabulary test (REVT), core vocabularies gained in the core vocabulary communication system, Chinese child developmental inventory, adaptive behavior assessment system-II (ABAS-II), parenting stress index (PSI), clinical global impression-improvement scale (CGI-I) were arranged.
(§2) This study was a twelve-week open label trial with the aim of gaining experience with sodium benzoate for the treatment of non-communicative children with ASDs. The participants were a convenient sample of outpatients children recruited from the Department of Pediatrics, Kaohsiung Medical University Hospital, Taiwan.
Six children, including five boys and 1 child with ages between 3-year-7-month to 9-year-10-month old, were assigned to receive a 12-week treatment of sodium benzoate. For children with a body weight equal or more than 15 kg, benzoate was given with 500 mg/day. For children with a body weight less than 15 kg, benzoate was given with 250 mg/day. […]
Primary caregiver filled out the Chinese version of the parenting stress index (Wen, 2003) which was a validated Chinese version of the original questionnaire developed by Abdin (Abidin, 1986) that measured aspects of parental functioning. […]

children with ASD [2] = assay: Safety observations (activity level, sleep) in the 12-week open label trial; type: in vivo, human; conditions: for Sleep: child C first 3 days of benzoate usage, child D, child E; for Activity level (untoward activating effect): child D at final assessment, child E in the first two weeks, returned to baseline one month later
Text: The present disclosure examined the efficacy and safety of sodium benzoate, a D-amino acid oxidase inhibitor, for the treatment of an autism spectrum disorder.
as §2
(§3) Six children, including five boys and 1 child with ages between 3-year-7-month to 9-year-10-month old, were assigned to receive a 12-week treatment of sodium benzoate. For children with a body weight equal or more than 15 kg, benzoate was given with 500 mg/day. For children with a body weight less than 15 kg, benzoate was given with 250 mg/day. Sodium benzoate was provided by Excelsior Pharmatech Labs (Taiwan).
(§4) All the children entering this study also started to receive communication training using the Core Vocabulary Communication System—Chinese version (the Unlimiter Assistive Technology Engineering Lab, Taiwan). Parents were required to teach their children 40 minutes per day at home using this System. During the 12-week period, the parents were required to bring children back the hospital every 2 weeks. At the baseline and the final (12 weeks) visit, the following assessments were arranged.

children with ASD [3] = assay: Adaptive Behavior Assessment System-II (ABAS-II), 12-week open label trial; type: in vivo, human; conditions: sodium benzoate 250 to 500 mg/day, 12 weeks, c2-c7 = child A-F
Description: as §1, §2
Six children, including five boys and 1 child with ages between 3-year-7-month to 9-year-10-month old, were assigned to receive a 12-week treatment of sodium benzoate. For children with a body weight equal or more than 15 kg, benzoate was given with 500 mg/day. […]
The ABAS-II is an individually administered, norm-referenced measure of adaptive behaviors (Harrison and Oakland, 2003). […] A Global Adaptive Composite (GAC) score is calculated from all nine skill area scores and presented as a norm-referenced standard score. Results were recorded by the pre- and post-GAC score and Social score.

[4] = test system: early-phase Alzheimer disease; conditions: prior trial; cited from earlier work
children with ASD [5] = assay: Clinical Global Impression-Improvement Scale (CGI-I) and clinicians' conclusion, 12-week open label trial; type: in vivo, human; conditions: for Clinicians' conclusion on improvement of the individual child (text): after 12 weeks, b64-b69 = child A-F in order
Description: as §1, §2, §3, §4
The CGI-I is an observer-rated scale that measures the global improvement of illness as compared to condition at admission to the trial (Guy, 1976).

schizophrenia = conditions: prior trial; cited from earlier work

Which results are given for O=C([O-])c1ccccc1.[Na+] [sodium benzoate]?
PSI % (parenting stress index, derived raw-to-percentile score), Post-Tx (children with ASD [1]): 62% and 93* % and 99* % and 99.9* % and 75% and 72%; Sleep (children with ASD [2]): sleep pattern was unaltered; Sleep (children with ASD [2]; listed as benzoate): not able to fall asleep at their usual sleep time; Activity level (untoward activating effect) (children with ASD [2]): activity level became even higher; also recorded: activity level increased; Activity level (untoward activating effect) (children with ASD [2]; listed as benzoic acid salt): untoward activating effect; ABAS-S: Parental reported Social Score, Post-Tx (children with ASD [3]; Pre-Tx A-F: 71, 51, 57, 61, 46, 45): 77 and 51 and 50 and 44 and 46 and 45; ABAS-GCS: Parental reported General Adaptive Composite Score, Post-Tx (children with ASD [3]; Pre-Tx A-F: 77, 60, 47, 53, 50, 58): 77 and 61 and 46 and 49 and 53 and 57; Clinical symptoms, neurocognitive ability and quality of life [4]: Significant improvements; Clinicians' conclusion on improvement of the individual child (text) (children with ASD [5]): much improved; also recorded: no improvement; also recorded: minimally improved; Clinicians' conclusion on improvement of the individual child (text) (children with ASD [5]; listed as benzoate): minimal improvement; Overall effect in teaching of communication skill as observed by the parents and clinicians (children with ASD [5]; six children, 12 weeks): beneficial effects; Participants judged to be much improved (children with ASD [5]; six children, 12 weeks, child A, B, E): Half of the participants; CGI: Clinical Global Impression-Improvement (children with ASD [5]; sodium benzoate 250 to 500 mg/day, 12 weeks, c2-c7 = child A-F): much ((2) much improved); also recorded: mini-; also recorded: nil ((4) no change); Clinical symptoms, neurocognitive ability and quality of life (schizophrenia): Significant improvements
